Series [1] has as its system RERF-LCAI, LC1sq, 11-18 and LK87 lung cancer cells. As to the kind of experiment: 51Cr release cytotoxicity assay on lung cancer cell lines. The class given is cell-based. The note with it: FIG. 4; E:T 20:1, 4 hours. As for the experimental part:
The cytotoxic activity of effector cells stimulated with WT1 wild peptide or WT1 modified peptide was tested on a cancer cell line associated with lung cancer that endogenously expresses WT1 antigen (target cells) using the ^51Cr release method.

For another series, the system named is C1R2402 cells. As to the kind of experiment: Killing assay (51Cr release) by peptide-stimulated effector cells on peptide-pulsed C1R2402 target cells. Format: cell-based. From the text: FIG. 1 is a graph showing the cell killing effects (specific cytolytic activity) on C1R2402 target cells (T), either pulsed or not pulsed with peptide, by effecter cells (E) stimulated with WT1 wild peptide (Sequence ID No. 2) or the WT1 modified peptide of the present invention (Sequence ID No. 3). In the graph, the black circles indicate the cytolytic effect on C1R2402 target cells pulsed with wild peptide by effecter cells stimulated with WT1 modified peptide, the black squares indicate the cytolytic effect on […] target cells pulsed with wild peptide by effecter cells stimulated with WT1 wild peptide, the white circles indicate the cytolytic effect on C1R2402 target cells not pulsed with wild peptide by effecter cells stimulated with WT1 modified peptide, and the white squares indicate the cytolytic effect on C1R2402 target cells not pulsed with wild peptide by effecter cells stimulated with WT1 wild peptide.
FIG. 3 is a graph showing the cell killing effects (specific cytolytic activity) on C1R2402 target cells, either pulsed or not pulsed with peptide, by effecter cells stimulated with WT1 wild peptide or the WT1 modified peptide of the present invention. […]

For series [2], the system named is C1R2402 cells pulsed with WT1 wild peptide. As to the kind of experiment: Blocking assay using antibody (51Cr release). Format: cell-based. The note with it: FIG. 5; E:T 20:1, 4 hours; anti-HLA class I, anti-HLA class II, anti-CD8 antibody. The source says: The antibodies used consisted of anti-HLA class I antibody, anti-HLA class II antibody and anti-CD8 antibody.

In series [3] the target is T1, HLA-A*2402 (Homo sapiens, UniProt P04439, D101N/D140Y/D185E/E176V/E190D/F33S/G103R/G107R/I119L/I121M/I306V/K335N/L105A/L180Q/L300P/N151K/N90K/Q86E/Q94H/R106L/R138H/R89G/T104I/T345S/V100E/W191G/Y123F). As to the kind of experiment: Binding affinity to HLA-A*2402 on acid-treated C1RA2402 cells (flow cytometry). As for the experimental part:
After washing the cells with the medium, they were suspended at a concentration of 2×10^6 cells/ml in DMEM medium containing 200 nM β2-microglobulin (Sigma) and 0.5% bovine serum albumin. 15 μl of the cell suspension were mixed with 50 μl of the medium comprising various concentrations of WT1 peptide followed by incubating for 4 hours at room temperature. After washing the cells, they were stained with monoclonal antibody to HLA-A24 labeled with FITC (clone name: 7A12), and the amount of HLA-A24 expressed was analyzed with a flow cytometer FACS system.
For orientation: In flow cytometry, cells or beads pass a laser one at a time.

Series [4] relates to leukemia cells from AML patients (WT1+/A*2402+). As to the kind of experiment: 51Cr release cell killing assay on leukemia cells endogenously expressing WT1 antigen. The note with it: FIG. 2, E:T 20:1, 4 hours, AML patient cells WT1+/-. Format: cell-based, human. As for the experimental part: The cell killing activity of effector cells stimulated with WT1 wild peptide or WT1 modified peptide on leukemia cells that endogenously express WT1 antigen was tested according to the ^51Cr release method.

Series [5] relates to peripheral blood mononuclear cells from HLA-A*2402-positive donors. As to the kind of experiment: Stimulation of peripheral blood mononuclear cells with peptide; status of the resulting cells. Format: cell-based, human. As for the experimental part:
Peripheral blood mononuclear cells were isolated from HLA-A*2402-positive donors and distributed among the wells of a 24-well plate at 2×10^6 cells/well followed by the addition of WT1 wild peptide or WT1 modified peptide to a concentration of 20 μM and culturing for 1 week. The medium used at this time consisted of 45% RPMI, 45% AIV, 10% FCS 1× non-essential amino acids and SM/PCG. Following the aforementioned culturing, the cells were adjusted to 2×10^6 cells/well and used as responder cells.
On the other hand, other peripheral blood mononuclear cells were similarly isolated from the same HLA-A*2402-positive donors and then peptide-pulsed by culturing for 4 days with one of the aforementioned peptides at 20 μM. After then irradiating at 30 Gy, the cells were adjusted to 4×10^6 cells/well and used as stimulator cells.
The responder cells and stimulator cells prepared in the manner described above were then mixed and then cultured for 1 week following the addition of IL-2 at 50 U/ml.

Series [6] deals with T1, HLA-A*2402. The note with it: reported in J. Immunol., 154, 5994, 1995; cited from earlier work.
[7] abbreviates: resulting cells after stimulation with 20 μM peptide and IL-2 50 U/ml.

For orientation: Kd means the equilibrium constant for the complex coming apart.

Read-outs that look alike come from different tables or passages of the source. Residues, ends and D or L forms follow the SMILES beside them. No end group written: not given here.

Consider `CSCC[C@H](NC(=O)[C@H](CCC(N)=O)NC(=O)[C@H](CC(N)=O)NC(=O)[C@H](Cc1c[nH]c2ccccc12)NC(=O)[C@@H](NC(=O)[C@H](Cc1ccc(O)cc1)NC(=O)[C@@H](N)CS)[C@@H](C)O)C(=O)N[C@@H](CC(N)=O)C(=O)N[C@@H](CC(C)C)C(=O)O` [WT1 modified peptide, Cys Tyr Thr Trp Asn Gln Met Asn Leu] (H-CYTWNQMNL-OH; N-terminus and C-terminus assumed), for which, in series [1], the “cytotoxic activity of peptide-stimulated effector cells on lung cancer cell lines” value is listed as “the level of that activity was higher”. Further, the “cell killing activity (cell lysis) of peptide-stimulated effector cells” value with C1R2402 cells (Example 1, FIG. 1, E:T ratio 1, 5, 20, C1R2402 target cells pulsed or not pulsed with peptide) is “more potent cell killing activity than cells stimulated with WT1 wild peptide”. Also, the “cytotoxic activity of peptide-stimulated effector cells” value with C1R2402 cells (Example 3, FIG. 3, effector cells from different healthy HLA-A*2402-positive donors) is “more potent cytotoxic activity than cells stimulated with WT1 wild peptide”. In addition, the “blocking of cytotoxic activity of peptide-stimulated effector cells by antibodies” value in series [2] is “blocked by anti-HLA class I antibody and anti-CD8 antibody”. In addition, the “binding affinity for HLA-A*2402 (comparison)” value on HLA-A*2402 [3] is reported as “stronger binding affinity for HLA-A*2402 than the WT1 wild peptide”. In addition, the Kd on HLA-A*2402 [3] (calculated using pmel 15 antigen peptide as standard, 4 hours at room temperature, read-out: Dissociation constant Kd) is 0.64 µM. Further, in series [4], the “cytotoxic activity of peptide-stimulated effector cells on leukemia cells” value is given as “the level of that activity was higher”. Besides, the No. of cells in series [5] (PBMC stimulated with 20 μM peptide, responder plus stimulator cells cultured 1 week with IL-2 50 U/ml) is 3.0 × 10^6/well. In series [5] (setting [7]), this compound gave a CD4 of 18% and a CD8 of 38%.
On to `CSCC[C@H](NC(=O)[C@H](CCC(N)=O)NC(=O)[C@H](CC(N)=O)NC(=O)[C@H](Cc1c[nH]c2ccccc12)NC(=O)[C@@H](NC(=O)[C@H](CCSC)NC(=O)[C@@H](N)CS)[C@@H](C)O)C(=O)N[C@@H](CC(N)=O)C(=O)N[C@@H](CC(C)C)C(=O)O` [WT1 wild peptide, Cys Met Thr Trp Asn Gln Met Asn Leu, reference compound] (H-CMTWNQMNL-OH), for which the “cytotoxic activity of peptide-stimulated effector cells on lung cancer cell lines” value in series [1] was “demonstrated cytotoxic activity only on the WT1+/A*2402+ cells”. The “blocking of cytotoxic activity of peptide-stimulated effector cells by antibodies” value in series [2] was “blocked by anti-HLA class I antibody and anti-CD8 antibody”. Moreover, at HLA-A*2402 [3], the equilibrium dissociation constant (Kd) worked out at 18.2 µM. The “cytotoxic activity of peptide-stimulated effector cells on leukemia cells” value in series [4] is recorded as “demonstrated cytotoxic activity on the WT1+/A*2402 cells”.
In the case of “AYGLDFYIL [melanoma antigen peptide used as standard for the Kd calculation]”, the “binding to HLA-A*2402” value with HLA-A*2402 [6] is on record as “reported to bind to HLA-A*2402”.

(Values after US8105604B2, “WT1 modified peptide” (International Institute of Cancer Immunology, Inc., priority 2001, dated 2012).)
